Source: patent US20120270250A1, “TEST SYSTEM FOR MEASURING MEST ACTIVITY AS WELL AS METHODS AND USES INVOLVING THE SAME” (SANOFI, priority 2009, published 2012)

How the values were obtained:
MEST T579B = molecular target: T1, MEST T579B (Homo sapiens, UniProt Q5EB52); assay: Glycerol 3-phosphate acyl transferase activity, MEST T579B-recombinant Sf9 crude membranes; assay type: biochemical
T1 construct: T579B=amino acids 2-335 and T580B=amino acids 11-335; made in house; host or cells: Sf9 insect cells (baculovirus, pVL1392); crude total membranes
T1 sequence (Q5EB52 2-335): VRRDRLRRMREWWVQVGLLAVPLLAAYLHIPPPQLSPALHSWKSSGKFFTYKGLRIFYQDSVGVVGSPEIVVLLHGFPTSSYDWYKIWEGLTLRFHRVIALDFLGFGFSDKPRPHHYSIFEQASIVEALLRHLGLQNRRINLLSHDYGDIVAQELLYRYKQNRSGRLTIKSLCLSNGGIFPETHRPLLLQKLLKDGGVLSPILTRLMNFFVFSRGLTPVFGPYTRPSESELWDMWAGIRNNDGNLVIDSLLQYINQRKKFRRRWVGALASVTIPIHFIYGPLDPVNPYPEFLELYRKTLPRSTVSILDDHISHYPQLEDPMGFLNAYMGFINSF
Protocol: (§1) The assay for determining glycerol 3-phosphate acyl transferase is based on the following principle:
(§2) Glycerol 3-phosphate acyl transferase activity was determined as incorporation of palmitate with palmitoyl CoA as acyl donor and radio-labeled [^3H] glycerol 3-phosphate as acyl acceptor, to obtain radio-labeled palmitoyl glycerol 3-phosphate. Radioactive-labeled product palmitoyl glycerol 3-phosphate was separated from the radio-labeled substrate by addition of a scintillator based on organic solvent in order to determine radioactivity in a suitable counter. After separation of phases, only radio-label in the organic solvent phase, which is saturated with scintillator, is detected, i.e. hydrophobic and amphiphilic substances as radio-labeled palmitoyl glycerol 3-phosphate. Hydrophilic radio-labeled glycerol phosphate, which has not been acylated, remains in the aqueous phase and is, therefore, not counted by the scintillation counter. The low amount of “cross-irradiation” from the aqueous phase to the organic phase was corrected by substracting a blank value of a control (containing all reaction components apart from MEST protein) for all MEST reactions.
(§3) Membranes of insect cells expressing human recombinant MEST protein (as below) in homogenization buffer adjusted to the desired concentration (determination of protein content by BioRad assay)
(§4) 10 μl enzyme solution were incubated with 50 μl reaction solution at 25° C. for 60 min. Incubation was carried out in an Eppendorf Thermomixer comfort with gentle agitation (450 min^−1), wherein the openings of the plate were sealed by a protection film (Whatman Uni Seal 7704-0009). The reaction was terminated by addition of 5 μl 200 mM glycerol 3-phosphate and 200 μl scintillation liquid (beta-plate, #1205-440, Perkin Elmer) and incubation under agitation as above at 25° C. for 15 min. After at least 12 hours of incubation at 25° C. without agitation for separation of the phases, radioactivity (in dpm) was measured in a scintillation counter (Wallac 1450 micro beta).
(§5) The enzyme solution (total membranes of Sf9 insect cells) was produced as follows: Sf9 insect cells were pelleted by centrifugation and frozen in aliquots (about 7-9 g). When needed, pelleted Sf9 insect cells were quickly thawed in a 37° C. water bath and kept on ice until further processing. Thereafter, they were transferred into a 50 ml glass homogenizer containing 10 ml homogenization buffer and, additionally, 0.5 mM DTT for preparing a suspension. Cells were homogenized in a teflon-in-glass homogenizer (10×1500/min at 4° C.). The homogenate was transferred into JA25.5 centrifugation tubes (Beckman #363647), diluted with 10 ml homogenization buffer plus DTT and pelleted by centrifugation (500 g, 5 min, 4° C., refrigerated centrifuge Beckman Avanti JA25I). The supernatant was transferred into ultracentrifugation tubes (Beckman #355618) and centrifugated (100000 g, 60 min, 4° C., Beckman Optima LE-80K). The supernatant was completely removed. The pellet was two times carefully washed with homogenization buffer and then resuspended in homogenization buffer. Enzyme solution was aliquoted, frozen in liquid nitrogen and stored at −80° C.
The experiment was carried out as detailed above. Particularly, crude membranes from insect cells (SF9) transfected to express MEST (T579B) were produced and assayed for glycerol 3-phosphate acyltransferase activity (dpm/test) in the presence of A003564556 or S987600. […]
The experiment was carried out as detailed above. Particularly, crude membranes of non-transfected insect cells (SF9) or insect cells (SF9) transfected to express either MEST (T579B) or GPAT (GPAT1, -3 or -4) were produced and assayed in the presence of 1 mM N-Ethylmaleimide (NEM) for 1 h or at 41° C. for 10 min.

MEST T580B = molecular target: T2, MEST T580B (Homo sapiens, UniProt Q5EB52); assay: Glycerol 3-phosphate acyl transferase activity, MEST T580B-recombinant Sf9 crude membranes; assay type: biochemical; settings: 1 mM NEM for 1 h
T2 construct: T579B=amino acids 2-335 and T580B=amino acids 11-335; made in house; host or cells: Sf9 insect cells (baculovirus, pVL1392); crude total membranes
T2 sequence (Q5EB52 11-335): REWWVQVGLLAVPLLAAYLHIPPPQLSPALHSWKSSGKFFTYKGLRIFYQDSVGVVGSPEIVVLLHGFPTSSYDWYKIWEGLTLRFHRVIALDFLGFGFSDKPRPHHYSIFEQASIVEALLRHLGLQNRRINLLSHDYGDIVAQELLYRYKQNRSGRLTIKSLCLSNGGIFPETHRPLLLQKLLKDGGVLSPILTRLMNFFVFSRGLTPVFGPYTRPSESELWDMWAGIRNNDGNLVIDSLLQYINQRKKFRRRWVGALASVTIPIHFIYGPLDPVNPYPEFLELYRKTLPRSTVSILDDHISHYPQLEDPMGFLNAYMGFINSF
Protocol: as §1, §2, §3, §4
as §5, with “The supernatant was transferred into ultracentrifugation tubes (Beckman #355618) and centrifugated (100000 g, 60 min, 4° C., Beckman Optima LE-80K). The supernatant was completely removed. The pellet was two times carefully washed with homogenization buffer and then resuspended in homogenization buffer. Enzyme solution was aliquoted, frozen in liquid nitrogen and stored at −80° C.” left out

[1] = system: endogenous insect cell glycerol 3-phosphate acyltransferase activities; assay: Glycerol 3-phosphate acyl transferase activity, non-transfected Sf9 crude membranes; assay type: biochemical, Sf9 insect cells; settings: 1 mM NEM for 1 h
Protocol: as §1, §2, §4
as §5, with “The pellet was two times carefully washed with homogenization buffer and then resuspended in homogenization buffer. Enzyme solution was aliquoted, frozen in liquid nitrogen and stored at −80° C.” left out

[2] = inhibitor 0.3 μM, MEST T579B 10 μg/Test
[3] = inhibitor 1 μM, MEST T579B 10 μg/Test
[4] = inhibitor 3 μM, MEST T579B 10 μg/Test
[5] = inhibitor 10 μM, MEST T579B 10 μg/Test
[6] = inhibitor 30 μM, MEST T579B 10 μg/Test
[7] = inhibitor 100 μM, MEST T579B 10 μg/Test
[8] = inhibitor 200 μM, MEST T579B 10 μg/Test
[9] = 1 mM NEM for 1 h, 10 μg Protein/Test
[10] = 1 mM NEM for 1 h, 30 μg Protein/Test

With `O=C(O)CCCCCCCCCCCNC(=O)NC12CC3CC(CC(C3)C1)C2` [A003564556] the “Inhibition of MEST activity (in words)” value (MEST T579B; MEST T579B crude membranes) was “partially inhibited”, the “Activity (dpm/Test)” value (MEST T579B; [2]) was 905 dpm/Test and the inhibition at 0.3 µM (MEST T579B; [2]) was -6%. The “Activity (dpm/Test)” value (MEST T579B; [3]) was 1011 dpm/Test, the inhibition at 1 µM (MEST T579B; [3]) was -19% and the “Activity (dpm/Test)” value (MEST T579B; [4]) was 881 dpm/Test. The inhibition at 3 µM (MEST T579B; [4]) was -4%, the “Activity (dpm/Test)” value (MEST T579B; [5]) was 845 dpm/Test and the inhibition at 10 µM (MEST T579B; [5]) was 1%. The “Activity (dpm/Test)” value (MEST T579B; [6]) was 779 dpm/Test, the inhibition at 30 µM (MEST T579B; [6]) was 8% and the “Activity (dpm/Test)” value (MEST T579B; [7]) was 557 dpm/Test. For the same compound, the inhibition at 100 µM (MEST T579B; [7]) was 34%, the “Activity (dpm/Test)” value (MEST T579B; [8]) was 458 dpm/Test and the inhibition at 200 µM (MEST T579B; [8]) was 48%. It also gave an IC50 (MEST T579B; partial inhibition of glycerol 3-phosphate acyl transferase activity) of about 200 µM.

For `CCN1C(=O)C=CC1=O` [NEM, N-Ethylmaleimide], the “Inhibition of MEST activity (in words)” value (MEST T579B; 1 mM NEM for 1 h) was “completely”, the “Activity (dpm/Test)” value (MEST T579B; [9]) was 49 dpm/Test and the inhibition at 1000 µM (MEST T579B; [9]) was 90%. The “Activity (dpm/Test)” value (MEST T579B; [10]) was 53 dpm/Test, the inhibition at 1000 µM (MEST T579B; [10]) was 94% and the “Activity (dpm/Test)” value (MEST T580B; 10 μg Protein/Test) was −11 dpm/Test. The inhibition at 1000 µM (MEST T580B; 10 μg Protein/Test) was 101%, the “Activity (dpm/Test)” value (MEST T580B; 30 μg Protein/Test) was 31 dpm/Test and the inhibition at 1000 µM (MEST T580B; 30 μg Protein/Test) was 96%. For the same compound, the “% Inhibition” value ([1]; 10 μg Protein/Test) was 95%, the “Activity (dpm/Test)” value ([1]; 10 μg Protein/Test) was 6 dpm/Test and the “% Inhibition” value ([1]; 30 μg Protein/Test) was 107%. The “Activity (dpm/Test)” value ([1]; 30 μg Protein/Test) was −12 dpm/Test.
